In patent US20210137961A1, “Compositions and Methods for Treating Dry Eye Diseases” (priority 2017, published 2021):
In brackets after ≈: the same amount, converted by molar mass. Read-outs that look alike come from different tables or passages of the source.

Experiments:
TNFα = experiment: LPS-induced TNFα production in PMA-differentiated U937 cells (ELISA); type: cell-based, human
Method: EXAMPLE. […] Cells. The human monocytic cell line U937 was obtained from the American Type Culture Collection (ATCC, Rockville, Md.). PBMCs from COPD patients were obtained from Brompton hospital and separated by AccuSPIN (Sigma-Aldrich). […] U937 cells were differentiated into adherent macrophage-like morphology by exposure to PMA (50 ng/ml) for 48 h in complete growth medium. Cell viability was assessed microscopically by trypan blue staining. Cell toxicity was determined by MTT assay as needed. This study was approved by the ethics committee of the Royal Brompton Hospitals, and all subjects gave written informed consent. Cytokine ELISA. TNFα and IL-8 concentrations in the supernatant of cell cultures were determined by sandwich ELISA according to the manufacturer's instructions (R&D Systems Europe, Abingdon, UK). Statistical analysis. The results were expressed as the mean±SEM. Comparisons of data in two groups were performed using the Student's t test or the Wilcoxon signed rank test. Multiple comparisons were made by one-way ANOVA with post hoc test (Dunnett's) as appropriate. The difference was considered significant at p<0.05. […] Anti-inflammatory effects of solithromycin in U937 cells.

Streptococcus pneumoniae = experiment: MIC against Streptococcus pneumoniae; type: cell-based
[1] = system: L. monocytogenes and S. aureus; experiment: Antibacterial activity at acidic pH compared with Azi; type: cell-based; details: including L. monocytogenes and S. aureus
MSRA = experiment: MIC against MSRA (30 species); type: cell-based
Legionella pneumophila = type: cell-based
[2] = speed of uptake and ultimate tissue concentration
Listeria monocytogenes = experiment: MIC against Listeria monocytogenes; type: cell-based; details: N 10
[3] = Protein binding in plasma; type: in vitro ADME
Streptococcus agalactiae = experiment: MIC against Streptococcus agalactiae; type: cell-based; details: N 535
[4] = system: Immortalized human meibomian gland epithelial cells (HMGECs); experiment: HMGEC lysosome and neutral lipid accumulation, differentiation and proliferation; type: cell-based
Method: EXAMPLE. Immortalized human meibomian gland epithelial cells (HMGECs) are cultured in the presence of vehicle or test compound, such as Soli (2, 10, or 20 μg/ml) for 1 to 7 days under proliferating (keratinocyte serum-free medium; KSFM) or differentiating (DMEM/F12 plus 10% fetal bovine serum) conditions. A positive control (epidermal growth factor and bovine pituitary extract for proliferation; Azi for differentiation) and a negative control (media only) are included with the experiments. Additional details are described in JAMA Ophthalmol 132(2): 226-228 (Feb. 1, 2014) and Current Eye Research, 1-6 (2017), each of which is incorporated herein by reference.
HMGECs are evaluated for cell number, neutral lipid content (LipidTox) and lysosome accumulation (LysoTracker). […] Strong lysosomal effects are observed with the 10 μg/ml dose of Soli (relative stimulation=30), on the first day of dosing, and those effects are statistically different (p<0.01) from the control group (relative stimulation=13). In contrast, the 10 μg/m1Azi dose is not statistically different from the control group (relative stimulation=18) until day 3. […] Compounds described herein, such a Soli, affect lysosome and lipid accumulation and differentiation of HMGECs. The effect of Soli on lysosome appearance is faster than that of Azi.

[5] = system: phagocytized L. monocytogenes; type: cell-based
S. epidermidis = experiment: MIC against S. epidermidis (30 species); type: cell-based
MMP9 = MMP9 activity in PMA-stimulated U937 cells (gelatin zymography); type: cell-based, human; details: PMA stimulation
Method: EXAMPLE. […] Cells. The human monocytic cell line U937 was obtained from the American Type Culture Collection (ATCC, Rockville, Md.). PBMCs from COPD patients were obtained from Brompton hospital and separated by AccuSPIN (Sigma-Aldrich). […] U937 cells were differentiated into adherent macrophage-like morphology by exposure to PMA (50 ng/ml) for 48 h in complete growth medium. Cell viability was assessed microscopically by trypan blue staining. Cell toxicity was determined by MTT assay as needed. This study was approved by the ethics committee of the Royal Brompton Hospitals, and all subjects gave written informed consent. Zymography. MMP9 enzyme activity was measured by gelatin zymography. […] After electrophoresis, gels were incubated and rinsed with Novex® zymogram renaturing buffer (Invitrogen) for 30 min at room temperature. The gels were then rinsed in Novex® zymogram developing buffer (Invitrogen) for 30 min at room temperature prior to overnight incubation in the developing buffer at 37° C. After incubation, the gels were stained using a Colloidal Blue Staining Kit (Invitrogen) to visualize the zymogen bands. Statistical analysis. The results were expressed as the mean±SEM. Comparisons of data in two groups were performed using the Student's t test or the Wilcoxon signed rank test. Multiple comparisons were made by one-way ANOVA with post hoc test (Dunnett's) as appropriate. The difference was considered significant at p<0.05.

[6] = MIC in the presence of serum; type: cell-based; details: 10% serum
Chlamydophila pneumoniae = experiment: MIC against Chlamydophila pneumoniae; type: cell-based
Chlamydia trachomatis = experiment: MIC against Chlamydia trachomatis; type: cell-based; details: N 10
[7] = Streptococcus pneumoniae, N 150

In the case of CC[C@H]1OC(=O)[C@@](C)(F)C(=O)[C@H](C)[C@@H](O[C@@H]2O[C@H](C)C[C@H](N(C)C)[C@H]2O)[C@](C)(OC)C[C@@H](C)C(=O)[C@H](C)[C@H]2N(CCCCn3cc(-c4cccc(N)c4)nn3)C(=O)O[C@]12C [Solithromycin, solithromycin], the IC50 (TNFα; LPS, PMA-differentiated U937 cells, read-out: IC50 on TNFα release) is reported as 41.6 ± 1.9 µM, the “inhibition of TNFα production (in words)” value (TNFα; solithromycin and telithromycin at 100 μM, clarithromycin at 333 μM) is reported as “significantly inhibited” and the MIC90 (Streptococcus pneumoniae; Streptococcus Pneumoniae (150 strains)) is reported as 0.25 mg/L (≈ 0.296 µM). The MIC50 (Streptococcus pneumoniae; [7]) was 0.015 mg/L (≈ 0.0178 µM), the MIC90 (Streptococcus pneumoniae; [7]) was 0.25 mg/L (≈ 0.296 µM) and the “MIC Range” value (Streptococcus pneumoniae; [7]) was ≤0.008 to 0.5 mg/L. For the same molecule, the “activity at acidic pH relative to Azi” value [1] was 100-200 fold, the “I = intermediate susceptibility” value (MSRA) was 0% and the MIC50 (MSRA) was 0.03 mg/L (≈ 0.0355 µM). The MIC90 (MSRA) was 64 mg/L (≈ 75.7 µM), the “NS = not susceptible” value (MSRA) was 30% and the “S = susceptible” value (MSRA) was 70%. For the same molecule, the MIC90 (Legionella pneumophila; Legionella pneumophila (30 strains)) was ≤0.015 mg/L, the MIC50 (Legionella pneumophila; Legionella pneumophila, N 30) was ≤0.015 mg/L and the MIC90 (Legionella pneumophila; Legionella pneumophila, N 30) was ≤0.015 mg/L. For the same molecule, the “MIC Range” value (Legionella pneumophila; Legionella pneumophila, N 30) was ≤0.015 mg/L, the “tissue distribution relative to Azi” value [2] was 10 fold and the MIC50 (Listeria monocytogenes) was 0.03 mg/L (≈ 0.0355 µM). The MIC90 (Listeria monocytogenes) was 0.03 mg/L (≈ 0.0355 µM), the “MIC Range” value (Listeria monocytogenes) was 0.03 mg/L (≈ 0.0355 µM) and the “protein binding in plasma” value [3] was 86%. The MIC50 (Streptococcus agalactiae) was ≤0.03 mg/L, the MIC90 (Streptococcus agalactiae) was ≤0.03 mg/L and the “MIC Range” value (Streptococcus agalactiae) was ≤0.03-0.5 ^ μg/mL. For the same molecule, the “lysosomal effects, relative stimulation” value ([4]; 10 μg/ml dose, first day of dosing, LysoTracker) was 30, the “accumulation of neutral lipids and lysosomes in HMGECs” value ([4]; 2, 10 or 20 μg/ml, 1 to 7 days) was “rapid and dose-dependent increase” and the “proliferation of HMGECs” value ([4]; 7-day dosing period) was “does not cause unwanted proliferation”. The “activity against phagocytized bacteria, fold greater” value [5] was 50-100 fold, the “potency relative to azithromycin” value ([5]; phagocytized L. monocytogenes) was 50 fold and the “I = intermediate susceptibility” value (S. epidermidis) was 3%. The MIC50 (S. epidermidis) was 0.015 mg/L (≈ 0.0178 µM), the MIC90 (S. epidermidis) was 32 mg/L (≈ 37.9 µM) and the “NS = not susceptible” value (S. epidermidis) was 17%. For the same molecule, the “S = susceptible” value (S. epidermidis) was 80%, the IC50 (MMP9) was 14.9 ± 3.1 µM and the “change in MIC in the presence of serum” value [6] was 2 fold. It also gave an MIC90 (Chlamydophila pneumoniae; Chlamydophila pneumoniae (10 strains)) of 0.25 mg/L (≈ 0.296 µM), an MIC50 (Chlamydophila pneumoniae; Chlamydophila pneumoniae, N 10) of 0.25 mg/L (≈ 0.296 µM) and an MIC90 (Chlamydophila pneumoniae; Chlamydophila pneumoniae, N 10) of 0.25 mg/L (≈ 0.296 µM). The “MIC Range” value (Chlamydophila pneumoniae; Chlamydophila pneumoniae, N 10) was 0.25 to 1 mg/L, the MIC50 (Chlamydia trachomatis) was 0.25 mg/L (≈ 0.296 µM) and the MIC90 (Chlamydia trachomatis) was 0.25 mg/L (≈ 0.296 µM). The “MIC Range” value (Chlamydia trachomatis) was 0.125 to 0.5 mg/L.
